# Assay results: ChEMBL document CHEMBL1201862, “PubChem BioAssay data set” (2004)
#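 Cells were grown in 96-well plates and exposed to each compound for 48 hours at five concentrations; endpoints were interpolated linearly between bracketing concentrations, or set to the highest concentration if not reached. GI50 = concentration required for 50% inhibition of growth.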 Activity calls are given as the source filed them. Cut-off read from the data, not from the text of the source: active = GI50 up to about 1.1 µM and inactive = higher.
# Tests used:
# Assay in all cases: NCI anticancer screen, dose series, 48 h
# OVCAR-5 = tested on: OVCAR-5
# EKVX = tested on: EKVX
# KM-20L2 = tested on: KM-20L2
# SF-268 = tested on: SF-268
# OVCAR-8 = tested on: OVCAR-8
# SR = tested on: SR
# M14 = tested on: M14
# SK-MEL-5 = tested on: SK-MEL-5
# SNB-75 = tested on: SNB-75
# SF-539 = tested on: SF-539
# M19-MEL = tested on: M19-MEL
# UO-31 = tested on: UO-31
# NCI-H23 = tested on: NCI-H23
# DMS-273 = tested on: DMS-273
# KM12 = tested on: KM12
# SW-620 = tested on: SW-620
# SK-OV-3 = tested on: SK-OV-3
# LXFL 529 = tested on: LXFL 529
# Malme-3M = tested on: Malme-3M
# A498 = tested on: A498
# HCT-116 = tested on: HCT-116
# RPMI-8226 = tested on: RPMI-8226
# SK-MEL-28 = tested on: SK-MEL-28
# SF-295 = tested on: SF-295
# ACHN = tested on: ACHN
# MOLT-4 = tested on: MOLT-4
# OVCAR-4 = tested on: OVCAR-4
# SNB-19 = tested on: SNB-19
# NCI-H522 = tested on: NCI-H522
# A549 = tested on: A549
# RXF 393 = tested on: RXF 393
# OVCAR-3 = tested on: OVCAR-3
# K562 = tested on: K562
# IGROV-1 = tested on: IGROV-1
# NCI-H460 = tested on: NCI-H460
# TK-10 = tested on: TK-10
# DLD-1 = tested on: DLD-1
# 786-0 = tested on: 786-0
# UACC-257 = tested on: UACC-257
# SK-MEL-2 = tested on: SK-MEL-2
# U-251 = tested on: U-251
# HOP-18 = tested on: HOP-18
# SN12C = tested on: SN12C
# HOP-62 = tested on: HOP-62
# HCT-15 = tested on: HCT-15
# LOX IMVI = tested on: LOX IMVI
# CCRF-CEM = tested on: CCRF-CEM
# DMS-114 = tested on: DMS-114
# COLO 205 = tested on: COLO 205
# HT-29 = tested on: HT-29
# UACC-62 = tested on: UACC-62
# SNB-78 = tested on: SNB-78
# HL-60 = tested on: HL-60
# HCC 2998 = tested on: HCC 2998
# NCI-H226 = tested on: NCI-H226
# HOP-92 = tested on: HOP-92
smiles,measurement,setting,value
CN(C)CC(C)(C)C(/C=C/c1ccccc1)=N\Nc1ccccc1,GI50,OVCAR-5,0.31 µM (active)
same,GI50,EKVX,0.378 µM (active)
same,GI50,KM-20L2,0.0217 µM (active)
same,GI50,SF-268,0.172 µM (active)
same,GI50,OVCAR-8,12.8 µM (inactive)
same,GI50,SR,0.798 µM (active)
same,GI50,M14,5.01 µM (inactive)
same,GI50,SK-MEL-5,6.64 µM (inactive)
same,GI50,SNB-75,14.6 µM (inactive)
same,GI50,SF-539,0.28 µM (active)
same,GI50,M19-MEL,10 µM (inactive)
same,GI50,UO-31,0.0836 µM (active)
same,GI50,NCI-H23,10.6 µM (inactive)
same,GI50,DMS-273,0.335 µM (active)
same,GI50,KM12,0.579 µM (active)
same,GI50,SW-620,0.375 µM (active)
same,GI50,SK-OV-3,5 µM (inactive)
same,GI50,LXFL 529,0.197 µM (active)
same,GI50,Malme-3M,10.4 µM (inactive)
same,GI50,A498,21.8 µM (inactive)
same,GI50,HCT-116,0.705 µM (active)
same,GI50,RPMI-8226,1.68 µM (inactive)
same,GI50,SK-MEL-28,1.89 µM (inactive)
same,GI50,SF-295,0.131 µM (active)
same,GI50,ACHN,0.132 µM (active)
same,GI50,MOLT-4,0.451 µM (active)
same,GI50,OVCAR-4,1.06 µM (active)
same,GI50,SNB-19,3.23 µM (inactive)
same,GI50,NCI-H522,6.14 µM (inactive)
same,GI50,A549,0.385 µM (active)
same,GI50,RXF 393,18 µM (inactive)
same,GI50,OVCAR-3,1.44 µM (inactive)
same,GI50,K562,0.238 µM (active)
same,GI50,IGROV-1,0.723 µM (active)
same,GI50,NCI-H460,0.659 µM (active)
same,GI50,TK-10,0.162 µM (active)
same,GI50,DLD-1,0.199 µM (active)
same,GI50,786-0,0.457 µM (active)
same,GI50,UACC-257,10.3 µM (inactive)
same,GI50,SK-MEL-2,3.6 µM (inactive)
same,GI50,U-251,0.306 µM (active)
same,GI50,HOP-18,15.3 µM (inactive)
same,GI50,SN12C,1.71 µM (inactive)
same,GI50,HOP-62,2.77 µM (inactive)
same,GI50,HCT-15,0.309 µM
same,GI50,LOX IMVI,0.296 µM (active)
same,GI50,CCRF-CEM,0.367 µM (active)
same,GI50,DMS-114,4.25 µM (inactive)
same,GI50,COLO 205,3.19 µM (inactive)
same,GI50,HT-29,11 µM (inactive)
same,GI50,UACC-62,0.0527 µM (active)
same,GI50,SNB-78,11 µM (inactive)
same,GI50,HL-60,1.16 µM (inactive)
Nc1c(C(=O)N/N=C/c2ccc(Cl)cc2)sc(=S)n1-c1ccccc1,GI50,OVCAR-5,> 100 µM (inactive)
same,GI50,HCC 2998,> 100 µM (inactive)
same,GI50,SF-268,40.8 µM (inactive)
same,GI50,OVCAR-8,> 100 µM (inactive)
same,GI50,SK-MEL-5,58.2 µM (inactive)
same,GI50,SNB-75,84.7 µM (inactive)
same,GI50,SF-539,62.8 µM (inactive)
same,GI50,M19-MEL,> 100 µM (inactive)
same,GI50,UO-31,> 100 µM (inactive)
same,GI50,NCI-H23,> 100 µM (inactive)
same,GI50,KM12,> 100 µM (inactive)
same,GI50,SW-620,> 100 µM (inactive)
same,GI50,SK-OV-3,> 100 µM (inactive)
same,GI50,LXFL 529,> 100 µM (inactive)
same,GI50,A498,> 100 µM (inactive)
same,GI50,HCT-116,> 100 µM (inactive)
same,GI50,SK-MEL-28,41.9 µM (inactive)
same,GI50,SF-295,> 100 µM (inactive)
same,GI50,ACHN,> 100 µM (inactive)
same,GI50,NCI-H226,> 100 µM (inactive)
same,GI50,SNB-19,> 100 µM (inactive)
same,GI50,NCI-H522,31.6 µM (inactive)
same,GI50,A549,> 100 µM (inactive)
same,GI50,HOP-92,> 100 µM (inactive)
same,GI50,OVCAR-3,> 100 µM (inactive)
same,GI50,K562,4.09 µM (inactive)
same,GI50,IGROV-1,> 100 µM (inactive)
same,GI50,NCI-H460,89.1 µM (inactive)
same,GI50,TK-10,> 100 µM (inactive)
same,GI50,DLD-1,> 100 µM (inactive)
same,GI50,UACC-257,> 100 µM (inactive)
same,GI50,U-251,> 10 µM (inactive)
same,GI50,HOP-18,> 100 µM (inactive)
same,GI50,HOP-62,> 100 µM (inactive)
same,GI50,CCRF-CEM,22.3 µM (inactive)
same,GI50,COLO 205,> 100 µM (inactive)
same,GI50,HT-29,> 100 µM (inactive)
same,GI50,UACC-62,> 100 µM (inactive)
same,GI50,HL-60,> 100 µM (inactive)
